“Also recorded” adds a separate entry of the source.

The subject of data set [1] is FOCUS cells. Description: directional motility, Boyden chamber-type culture inserts. The data set is classed as cell-based, human. The settings on record: 5 μM pretreatment for 24 hours, migration 30 min. The method, then:
(§1) The β-hydroxylase activity is required for ASPH to mediate its effects on cell motility. Directional motility was measured using Boyden chamber-type culture inserts equipped with porous membranes. FOCUS cells were pretreated with 5 μM of MO-1-1100 and MO-1-500 β-hydroxylase inhibitor for 24 hours, and then placed into the upper chamber. Migration was allowed to proceed for 30 min. ATPLite was used to quantify viable cell density. The cells in the upper well and upper surface of membrane reflects the number of non-migrating cells, luminescence measured at the bottom surface of the membrane reflects the number of migrating and non-adherent cells and luminescence measured in the bottom well was reflect migrating and non-adherent cells. […] Cell invasiveness was assessed by invasion assay using matrigel coated membrane, in which cells were allowed to proceed for 6 hours; those found adhered on the bottom surface of membrane were regarded as invading cells.

Data set [2] deals with FOCUS cells. Description: invasion assay using matrigel coated membrane. It counts as cell-based, human. The settings on record: 6 hours, compared to DMSO control. The method, then: as §1
The test system of another data set is FOCUS HCC cells. Description: colony formation assay. The data set is classed as cell-based, human. The settings on record: 1.25 μM. Here is the method: (§2) A MTT assay was performed to evaluate the effect of MO-1-1100 on cell proliferation and viability. MTT is reduced to purple formazan in living cells. FOCUS cells were used as a high ASPH expressing human HCC cell line. […] The MTT assay measures cellular metabolic activity via NAD(P)H-dependent cellular oxidoreductase enzymes. […] In order to evaluate the effect of long-term exposure of MO-1-1100, the colony formation assay (an assay of malignant potential and phenotype) in which cells were treated with inhibitor for 3 weeks was performed.

The test system of data set [3] is FOCUS cells. Description: MTT assay (cell proliferation, metabolic activity). The settings on record: micromolar concentrations. The data set is classed as cell-based, human. Here is the method: as §2
Data set [4] addresses T1, ASPH (Homo sapiens, UniProt Q12797).
T1 sequence (Q12797 1-758): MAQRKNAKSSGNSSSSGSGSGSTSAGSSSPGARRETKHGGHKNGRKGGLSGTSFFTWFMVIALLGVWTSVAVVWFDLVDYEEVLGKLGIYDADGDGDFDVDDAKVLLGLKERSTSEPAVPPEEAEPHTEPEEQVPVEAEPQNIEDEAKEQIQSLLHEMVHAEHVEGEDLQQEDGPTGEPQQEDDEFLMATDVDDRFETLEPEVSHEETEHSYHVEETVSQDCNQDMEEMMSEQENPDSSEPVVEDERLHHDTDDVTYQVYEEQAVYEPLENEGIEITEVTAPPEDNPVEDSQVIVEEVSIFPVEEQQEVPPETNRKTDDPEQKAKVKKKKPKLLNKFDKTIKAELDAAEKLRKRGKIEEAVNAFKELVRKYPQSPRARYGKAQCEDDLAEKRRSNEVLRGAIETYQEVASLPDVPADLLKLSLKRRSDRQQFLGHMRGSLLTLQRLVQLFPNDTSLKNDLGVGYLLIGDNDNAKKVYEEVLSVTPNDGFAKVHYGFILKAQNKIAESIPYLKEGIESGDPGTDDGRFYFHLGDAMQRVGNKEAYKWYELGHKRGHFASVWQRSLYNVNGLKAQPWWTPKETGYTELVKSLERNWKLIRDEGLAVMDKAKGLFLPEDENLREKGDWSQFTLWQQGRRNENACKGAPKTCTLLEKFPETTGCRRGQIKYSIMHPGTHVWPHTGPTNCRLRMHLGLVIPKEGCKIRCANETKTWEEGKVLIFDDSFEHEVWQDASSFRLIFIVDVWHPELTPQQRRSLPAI
Description: binding to ASPH by isothermal titration calorimetry. An excerpt:
In the second step arylhydroxytetronimide was sulfonylated with phenylmethansulfonyl chloride in dry tetrahydrofuran to yield compounds of formula 1 (shown below). Compounds were characterized by 1H and 13C nuclear magnetic resonance, high resolution mass spectroscopy, high performance liquid chromatography, infra-red spectroscopy, melting point, elemental analysis and binding to ASPH by isothermal titration calorimetry.
Candidate parent compounds were selected as inhibitors for β-hydroxylase activity based on crystal structure of the catalytic site in the C-terminal region of ASPH and computer assisted drug design.
(ITC needs no label: the signal is the heat of the interaction.)

Data set [5] concerns FOCUS cells. Kind of data set: anchorage independent growth in soft agar. It counts as cell-based, human. Here is the method:
The effect of MO-1-1100 on anchorage independent growth in soft agar was evaluated. The ability of forming colonosphere in soft agar is considered to be a rigid test for tumorigenic potential. ASPH expression results in cells acquiring the ability to form colonospheres in soft agar. […] In order to evaluate the effect of ASPH inhibitor for anchorage independent colony formation, FOCUS cells were incubated in soft agar with or without this ASPH enzymatic inhibitor. After 3 weeks incubation, MO-1-1100 reduced colonosphere formation of FOCUS cells (FIG. 9A). […] This assay is a standard method to monitor malignant growth that reflects the ability to form tumors that grow aggressively in vivo.

In another data set the test system is NIH-3T3 cells. Kind of data set: MTT assay (cell proliferation, metabolic activity). It counts as cell-based, mouse. The method, then:
as §2
On the technique in general: Formazan colour is commonly taken as a measure of viable cells.

Data set [6] concerns the target T1, ASPH. Kind of data set: high throughput 14CO2 capture enzymatic assay for ASPH β-hydroxylase activity (ASPH mAb capture from lysates of treated FOCUS cells). It counts as biochemical. Details: endogenous in cells; host or cells: FOCUS cells (human hepatocellular carcinoma line). Here is the method: In yet another aspect, the disclosure provides a method determining ASPH activity by contacting an EGF-like domain peptide with a detectably-labeled α-ketoglutarate and ASPH enzyme and measuring β-hydroxylase activity. In one embodiment, said α-ketoglutarate is ^14C-labelled, and wherein β-hydroxylase activity is measured by detecting liberated ^14CO2. In one embodiment, said liberated ^14CO2 is captured on a filter and radioactivity quantified. […] In one embodiment, said EGF-like domain comprises the amino acid sequence of […] (SEQ ID NO:1). In one embodiment, said EGF-like domain peptide comprises the consensus sequence of CDXXXCXXKXGNGXCDXXCNNAACXXDGXDC (SEQ ID NO: 2).
FIG. 3A is a diagram of the biochemical reaction catalyzed by ASPH derived from PC cell lysates. FIG. 3B is a cartoon illustrating the read-out to quantify ASPH activity in PC cells and tumors. FIG. 3C is an image of membrane was obtained by a phosphor-imager after a 16 hour exposure of the trapping filter to a phospho-screen. FIG. 3D is a bar graph showing intensities were calculated by Image J software and compared to a DMSO control. Vertical bars represent standard deviation. These figures show methods of measurement and data relating to ASPH catalytic activity.
EGF and EGF-like domains are well known in the art and generally include six cysteine residues which have been shown (in EGF) to be involved in disulfide bonds. The main structure is a two-stranded beta-sheet followed by a loop to a C-terminal short two-stranded sheet. Subdomains between the conserved cysteines vary in length. Examples include those described in Davis, C G, 1990, New Biol. 2(5):410-9; Blomquist et al., 1984, Proc Natl Acad Sci USA. 81(23):7363-7; Hommel et al., […], J Mol Biol. 227(1):271-82; Doolittle et al., 1984, Nature. 307(5951):558-60; Appella et al., 1988, FEBS Lett. 231(1):1-4; Sorkin A., 2001, Biochem Soc Trans. August; 29(Pt 4):480-4; each of which is hereby incorporated by reference). FIGS. 3A-C represents the strategy for development and characterization of the performance of an assay to measure ASPH enzymatic activity. FIG. 3A describes the biochemical reaction catalyzed by ASPH. FIG. 3B depicts the read-out of the assay. Protein lysates were extracted from FOCUS cells (high level of ASPH cell surface expression) treated with 1-10 μM of each parent compound for 24 hours. The lysates were added into 96 well-plates coated with ASPH monoclonal antibodies (mAbs) to add an antigen specific (ASPH) capture step to the assay design. After incubation and washing, only ASPH is captured on each well. The reaction is carried out with 60 μM of an EGF domain containing 39AA peptide, 100 μM FeCl2 and 40 μM ^14C labeled α-ketoglutarate were added into each well. The ^14CO2 was captured on a glass fiber membrane soaked in Ca(OH)2. […] The compound was further characterized for clinical use as an anti-tumor agent for PC and HCC and other ASPH-expressing tumors.

With `NC1=C(O)C(=O)C(c2cc(F)ccc2F)O1` (centres unmarked) [Example 1o, 5-amino-4-hydroxy-2-(2,5-difluorophenyl)-furan-3-one], the melting point came out at 196 °C.

The molecule `NC1=C(O)C(=O)C(c2ccccc2F)O1` (centres unmarked) [Example 1j, 5-amino-4-hydroxy-2-(2-fluorophenyl)-furan-3-one] registered a melting point of 160 to 163 °C.

Consider `NC1=C(O)C(=O)C(c2ccc(F)c(F)c2)O1` (centres unmarked) [Example 1q, 5-amino-4-hydroxy-2-(3,4-difluorophenyl)-furan-3-one], for which the melting point was in the range of 190 to 194 °C.

In the case of `NC1=C(OS(=O)(=O)c2ccccc2)C(=O)C(c2ccc(Cl)cc2)O1` (centres unmarked) [Compound 7c, 2-(4-chlorophenyl)-4-[[phenylsulfonyl]oxy]-5-amino-3(2H)-furanone], the melting point lay within 190 to 195 °C.

`NC1=C(O)C(=O)C(c2c(F)cccc2F)O1` (centres unmarked) [Example 1p, 5-amino-4-hydroxy-2-(2,6-difluorophenyl)-furan-3-one] returned a melting point of 159 to 160 °C.

`NC1=C(O)C(=O)C(c2cc(F)cc(F)c2)O1` (centres unmarked) [Example 1r, 5-amino-4-hydroxy-2-(3,5-difluorophenyl)-furan-3-one] returned a melting point of 190 to 191 °C.

In turn, `NC1=C(O)C(=O)C(c2cccc(F)c2F)O1` (centres unmarked) [Example 1m, 5-amino-4-hydroxy-2-(2,3-difluorophenyl)-furan-3-one] showed a melting point of 193 °C.

`NC1=C(O)C(=O)C(c2ccc(F)cc2F)O1` (centres unmarked) [Example 1n, 5-amino-4-hydroxy-2-(2,4-difluorophenyl)-furan-3-one] returned a melting point of 182 to 183 °C.

With `NC1=C(O)C(=O)C(c2ccc(Cl)cc2)O1` (centres unmarked) [Example 1c, 5-amino-4-hydroxy-2-(4-chlorophenyl)-furan-3-one], the melting point is 221 to 222 °C.

In the case of `NC1=C(O)C(=O)C(c2cccc(F)c2)O1` (centres unmarked) [Example 1k, 5-amino-4-hydroxy-2-(3-fluorophenyl)-furan-3-one], the melting point was 168 °C.

`CC(=O)OC1=C(N)OC(c2ccc(Cl)cc2)C1=O` (centres unmarked) [Example 2c, 2-(4-chlorophenyl)-4-(acetoxy)-5-amino-3(2H)-furanone] registered a melting point of 221 to 222 °C.

`CCS(=O)(=O)Nc1oc(-c2ccc(Cl)cc2)c(O)c1O` [MO-1-500]: the “cell migration / motility” value in the data set on FOCUS cells [1] was “pronounced effect”. The invasiveness entry with FOCUS cells [2] was “pronounced effect”. The colony formation result with FOCUS HCC cells is given as “substantial inhibitory effects; also recorded: strikingly inhibits”. For the same molecule, the “cell proliferation and metabolic activity” value is “striking affects; also recorded: growth inhibited” in the data set with FOCUS cells [3] and “striking affects; also recorded: growth inhibited” in the data set with NIH-3T3 cells (NIH-3T3 cells, micromolar concentrations). In addition, the ASPH binding entry at ASPH [4] is “confirmed to demonstrate ASPH binding”. In addition, the “number of colonies formed and colony size in soft agar” value with FOCUS cells [5] (1 μM) is given as “dramatically reduced”. Moreover, the “number and size of FOCUS cell colonies in soft agar” value in the data set on FOCUS cells [5] (0.5, 1, and 5 μM) was “striking reduction”. Further, the “specificity for the β-hydroxylase activity of ASPH” value in the data set on NIH-3T3 cells (FOCUS (express ASPH) versus NIH-3T3 (do not express ASPH)) is on record as “not specific for ASPH”. Besides, the “identified as hits (screening for inhibition of β-hydroxylase activity)” value at ASPH [6] is “identified as hits”. Further, on ASPH [6] (5 μM), the ASPH enzymatic activity result is given as “inhibited”. The “ASPH enzymatic inhibitory activity (β-hydroxylase)” value at ASPH [6] (concentration not given) is on record as “inhibit”.

As a reminder, the melting point is the temperature of the solid-liquid transition.
